How the values were obtained:
RSK1 [1] = target: T1, RSK1 (Homo sapiens, UniProt Q15418); test: ELISA dilution reaction (100-fold dilution after 2 h pre-incubation), RSK1; type: biochemical; conditions: 4 h after 100-fold dilution
RSK2 [2] = target: T2, RSK2 (Homo sapiens, UniProt P51812); test: ELISA kinase activity assay, RSK2; type: biochemical; conditions: for IC50: 10 μM ATP, 30 min reaction; for % Uninhibited kinase at 30 μM: 30 μM inhibitor
Experimental: The activity of RSK2 was measured as previously reported. Briefly, 1 nM kinase, inhibitor or vehicle (1% DMSO), and 10 μM ATP in kinase buffer were dispensed into the wells of a 96-well plate with adsorbed glutathione S-transferase fusion protein containing the sequence […]. The reaction was stopped after 30 min, during the linear phase, with the addition of equal volume 500 mM EDTA, then phosphorylated peptide was measured by ELISA. Luminescence from wells with EDTA added before ATP was subtracted, then luminescence was normalised to the average vehicle luminescence. […] After 2 h incubation, the kinase/inhibitor mix was diluted 100-fold in kinase buffer. […] The reaction was stopped at the time indicated in the figures with the addition of EDTA, and amount of phosphorylated peptide was measured by ELISA.
(§1) Hill slope and IC50 were unconstrained. […] Statistical significance is considered using α = 0.01.

RSK1 [3] = target: T1, RSK1; test: FRET kinase binding assay, RSK1; conditions: for % Uninhibited kinase at 30 μM: 30 μM inhibitor
Experimental: (§2) Normalised EMR was calculated in MATLAB (Mathworks).
as §1
The results from the pre-incubation experiments provide an indirect measure of the inhibitor off rate whereas the simultaneous addition of inhibitor and tracer provide an indirect measure of the inhibitor on rate. […] The mechanism that accounts for the unique properties of RSK2 interacting with 1c are unknown.

RSK2 NTKD = target: T3, RSK2 NTKD (Homo sapiens, UniProt P51812); test: FRET kinase binding assay, isolated RSK2 NTKD; conditions: for % Uninhibited kinase at 30 μM: 30 μM inhibitor
T3 construct: domain, containing residues 1–389; made in house
Experimental: as §2
Recombinant baculoviruses were generated by the Gateway cloning using the BaculoDirect Baculovirus Expression System (Invitrogen) according to the manufacturer's manual.The cDNA for RSK2 NTKD was amplified by conventional PCR, then cloned into pENTR-D-TOPO (pENTR Directional TOPO Cloning Kits, Invitrogen). The resulting Gateway Entry vectors were used for making the baculoviruses in the same way as RSK1 and RSK2 WT viruses. These constructs have 6xHis sequence in their C-termini and recombinant proteins were purified by Ni-NTA Agarose (Qiagen).
as §1

RSK2 [4] = target: T2, RSK2; test: FRET kinase binding assay (LanthaScreen Eu Kinase Binding Assay), full-length RSK2; conditions: for % Uninhibited kinase at 30 μM: 30 μM inhibitor; for IC50: 15 nM tracer; for Relative Off-Rate: slope of change in IC50 over time after 2 h pre-incubation, log-log fit
Experimental: as §2, §1

RSK2 [5] = target: T2, RSK2; test: ELISA dilution reaction (100-fold dilution after 2 h pre-incubation), RSK2; type: biochemical
Experimental: The activity of RSK2 was measured as previously reported. Briefly, 1 nM kinase, inhibitor or vehicle (1% DMSO), and 10 μM ATP in kinase buffer were dispensed into the wells of a 96-well plate with adsorbed glutathione S-transferase fusion protein containing the sequence […]. The reaction was stopped after 30 min, during the linear phase, with the addition of equal volume 500 mM EDTA, then phosphorylated peptide was measured by ELISA. Luminescence from wells with EDTA added before ATP was subtracted, then luminescence was normalised to the average vehicle luminescence. […] After 2 h incubation, the kinase/inhibitor mix was diluted 100-fold in kinase buffer. […] After the dilution, kinase/inhibitor solution and 3.3 μM ATP in kinase buffer were mixed to initiate the reaction. The reaction was stopped at the time indicated in the figures with the addition of EDTA, and amount of phosphorylated peptide was measured by ELISA.
To further analyse the stability of RSK2 with 1c the ELISA assay was used as an orthogonal approach. […] Inhibition of kinase activity was measured at differing time points and compared to that obtained with a concentration of inhibitor equal to the concentration after dilution. […]
Figure 6. […] After dilution, ATP was added and the reaction proceeded for the times indicated, then the reaction was stopped with EDTA and the amount of phosphorylated substrate was measured by ELISA. […]

247 kinases = tested on: 247 kinases; parameters: method as in PMID 27528706; conditions: representatives from all kinase families; cited from earlier work
RSK1/2 = conditions: cell-based assay; cited from earlier work
RSK3 = RSK3 (Homo sapiens, UniProt Q15349); test: FRET kinase binding assay, GST-tagged RSK3
Experimental: (§3) For RSK1 and RSK2 NTKD, 2 nM Eu Streptavidin and 2 nM Biotin anti-His antibody (Invitrogen) and for RSK3/4, 2 nM Eu anti-GST antibody (Invitrogen) were used in place of the Eu anti-His antibody. […] The corresponding average EMR of wells without inhibitor or kinase was subtracted, and background-subtracted EMR was normalised to average vehicle control. Normalised EMR was calculated in MATLAB (Mathworks).
(§4) Hill slope and IC50 were unconstrained. […] Curve fitting and statistics were calculated in Prism 9.0.2 (Graphpad). Statistical significance is considered using α = 0.01.
(§5) This assay uses an ATP-mimetic tracer labelled with an acceptor fluorophore and a recombinant His-tagged kinase, which is indirectly labelled with a europium donor chelated to an anti-His antibody. Interaction of the tracer with the kinase generates a FRET signal. […] GST-tagged RSK3 and RSK4 were purchased and tested with a labelled anti-GST antibody in the FRET assay.

RSK1 [6] = target: T1, RSK1; test: ELISA kinase activity assay, RSK1; type: biochemical; conditions: RSK1, 2 h pre-incubation
RSK4 = RSK4 (Homo sapiens, UniProt Q9UK32); test: FRET kinase binding assay, GST-tagged RSK4
Experimental: as §3, §4, §5

[7] = FRET, RSK2, 5 min kinase-inhibitor incubation
[8] = FRET, RSK2, 2 h kinase-inhibitor incubation before tracer

T3 sequence (P51812 1-389): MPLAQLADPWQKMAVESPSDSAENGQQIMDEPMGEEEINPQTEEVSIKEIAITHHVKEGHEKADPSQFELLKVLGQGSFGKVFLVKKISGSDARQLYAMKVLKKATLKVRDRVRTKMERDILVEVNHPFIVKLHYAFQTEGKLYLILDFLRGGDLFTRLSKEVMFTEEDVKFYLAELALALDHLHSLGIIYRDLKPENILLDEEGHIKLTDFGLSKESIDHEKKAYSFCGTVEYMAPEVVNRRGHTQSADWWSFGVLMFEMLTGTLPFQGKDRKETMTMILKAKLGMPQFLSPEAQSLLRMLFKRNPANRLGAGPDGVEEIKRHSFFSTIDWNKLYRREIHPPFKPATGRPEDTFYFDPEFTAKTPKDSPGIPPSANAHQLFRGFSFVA
T1 sequence (Q15418 whole entry): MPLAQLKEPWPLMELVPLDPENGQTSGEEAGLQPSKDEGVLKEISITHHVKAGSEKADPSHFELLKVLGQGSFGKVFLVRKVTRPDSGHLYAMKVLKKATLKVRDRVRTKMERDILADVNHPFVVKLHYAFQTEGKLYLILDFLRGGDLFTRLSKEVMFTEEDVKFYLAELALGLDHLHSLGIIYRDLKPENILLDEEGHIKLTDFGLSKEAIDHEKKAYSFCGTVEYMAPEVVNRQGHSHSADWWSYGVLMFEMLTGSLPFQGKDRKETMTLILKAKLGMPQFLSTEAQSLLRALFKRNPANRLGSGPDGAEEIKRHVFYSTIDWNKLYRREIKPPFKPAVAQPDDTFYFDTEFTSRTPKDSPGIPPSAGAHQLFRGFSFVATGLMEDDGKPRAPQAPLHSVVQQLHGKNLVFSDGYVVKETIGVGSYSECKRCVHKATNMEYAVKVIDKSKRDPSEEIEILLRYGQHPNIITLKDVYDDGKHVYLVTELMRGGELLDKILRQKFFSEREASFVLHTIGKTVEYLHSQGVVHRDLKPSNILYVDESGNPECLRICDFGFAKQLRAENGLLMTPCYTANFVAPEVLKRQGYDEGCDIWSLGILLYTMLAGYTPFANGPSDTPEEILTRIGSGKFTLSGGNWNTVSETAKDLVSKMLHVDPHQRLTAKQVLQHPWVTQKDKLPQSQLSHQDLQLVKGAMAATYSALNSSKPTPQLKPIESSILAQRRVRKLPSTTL
T2 sequence (P51812 whole entry, the tested form may be a part): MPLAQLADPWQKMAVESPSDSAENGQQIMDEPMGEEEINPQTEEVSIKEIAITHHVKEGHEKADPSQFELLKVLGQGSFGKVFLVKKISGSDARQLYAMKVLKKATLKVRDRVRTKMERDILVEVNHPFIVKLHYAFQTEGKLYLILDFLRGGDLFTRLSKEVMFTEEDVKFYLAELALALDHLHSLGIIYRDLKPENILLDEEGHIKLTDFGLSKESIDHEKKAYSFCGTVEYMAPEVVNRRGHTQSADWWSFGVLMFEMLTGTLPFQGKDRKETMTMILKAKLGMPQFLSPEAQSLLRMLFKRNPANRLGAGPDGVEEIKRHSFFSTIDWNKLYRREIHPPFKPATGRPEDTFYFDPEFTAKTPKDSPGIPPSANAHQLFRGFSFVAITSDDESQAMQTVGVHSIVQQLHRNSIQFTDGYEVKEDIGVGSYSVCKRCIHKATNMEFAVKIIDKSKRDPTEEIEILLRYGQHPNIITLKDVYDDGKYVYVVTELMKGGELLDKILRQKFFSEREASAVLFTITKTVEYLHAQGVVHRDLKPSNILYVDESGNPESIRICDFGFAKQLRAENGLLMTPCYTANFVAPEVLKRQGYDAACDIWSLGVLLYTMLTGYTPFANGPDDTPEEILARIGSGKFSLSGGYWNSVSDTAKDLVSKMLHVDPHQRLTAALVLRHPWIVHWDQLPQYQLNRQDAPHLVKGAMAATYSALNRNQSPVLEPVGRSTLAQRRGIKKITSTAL
RSK4, sequence (Q9UK32 whole entry, species assumed): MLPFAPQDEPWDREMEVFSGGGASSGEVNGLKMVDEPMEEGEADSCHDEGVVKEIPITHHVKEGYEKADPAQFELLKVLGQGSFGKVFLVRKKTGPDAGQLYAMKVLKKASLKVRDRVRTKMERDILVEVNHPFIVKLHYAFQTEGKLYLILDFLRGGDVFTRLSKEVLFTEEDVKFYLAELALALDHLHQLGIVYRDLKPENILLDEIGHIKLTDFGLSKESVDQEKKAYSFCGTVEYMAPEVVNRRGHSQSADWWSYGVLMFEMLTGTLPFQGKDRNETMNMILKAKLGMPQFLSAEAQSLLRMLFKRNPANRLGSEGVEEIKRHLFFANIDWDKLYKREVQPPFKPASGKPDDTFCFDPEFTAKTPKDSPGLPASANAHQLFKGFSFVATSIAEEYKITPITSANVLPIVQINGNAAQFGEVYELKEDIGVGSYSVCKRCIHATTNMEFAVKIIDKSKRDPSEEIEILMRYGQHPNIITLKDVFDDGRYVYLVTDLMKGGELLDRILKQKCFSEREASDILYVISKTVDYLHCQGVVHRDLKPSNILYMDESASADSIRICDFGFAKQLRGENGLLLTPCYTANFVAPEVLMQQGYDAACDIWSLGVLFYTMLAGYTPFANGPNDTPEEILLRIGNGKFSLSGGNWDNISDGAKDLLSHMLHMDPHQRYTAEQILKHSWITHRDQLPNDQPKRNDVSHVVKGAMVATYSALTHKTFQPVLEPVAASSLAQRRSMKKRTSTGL
RSK3, sequence (Q15349 whole entry, species assumed): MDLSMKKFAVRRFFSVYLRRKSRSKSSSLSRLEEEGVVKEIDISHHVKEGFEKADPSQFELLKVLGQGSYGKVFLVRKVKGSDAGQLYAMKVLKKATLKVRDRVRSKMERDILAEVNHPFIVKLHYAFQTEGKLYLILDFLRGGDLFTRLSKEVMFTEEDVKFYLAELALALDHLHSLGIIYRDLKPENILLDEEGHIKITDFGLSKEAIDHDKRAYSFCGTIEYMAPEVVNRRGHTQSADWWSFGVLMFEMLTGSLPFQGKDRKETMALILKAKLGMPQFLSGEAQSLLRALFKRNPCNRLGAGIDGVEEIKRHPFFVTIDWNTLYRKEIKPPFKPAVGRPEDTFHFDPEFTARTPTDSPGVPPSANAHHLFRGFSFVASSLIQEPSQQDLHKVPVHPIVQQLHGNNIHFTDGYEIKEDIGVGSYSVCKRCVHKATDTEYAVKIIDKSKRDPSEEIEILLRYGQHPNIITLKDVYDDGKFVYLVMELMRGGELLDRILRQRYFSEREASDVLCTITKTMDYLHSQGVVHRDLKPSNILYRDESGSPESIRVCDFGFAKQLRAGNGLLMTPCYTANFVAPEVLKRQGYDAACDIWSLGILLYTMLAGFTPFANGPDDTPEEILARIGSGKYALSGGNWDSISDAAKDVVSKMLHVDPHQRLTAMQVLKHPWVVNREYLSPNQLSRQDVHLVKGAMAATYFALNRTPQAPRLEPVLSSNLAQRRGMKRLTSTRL

SMILES	IC50 (RSK2 [2]; RSK2, 2 h pre-incubation) [µM]	% Uninhibited kinase at 30 μM (RSK2 [2]; RSK2, 2 h pre-incubation) [%]	IC50 (RSK1 [3]; FRET, RSK1, 2 h incubation) [µM]	% Uninhibited kinase at 30 μM (RSK1 [3]; FRET, RSK1, 2 h incubation) [%]	% Uninhibited kinase at 30 μM (RSK2 NTKD; 2 h incubation) [%]	% Uninhibited kinase at 30 μM (RSK2 [4]; FRET, RSK2, 5 min incubation) [%]	IC50 (RSK2 [4]; [7]) [µM]	% Uninhibited kinase at 30 μM (RSK2 [4]; FRET, RSK2, 2 h incubation) [%]	IC50 (RSK2 [4]; [8]) [µM]	Relative Off-Rate (RSK2 [4]; RSK2)	also measured
CCCNC(=O)O[C@@H]1[C@@H](OC(C)=O)[C@@H](O)[C@H](Oc2c(-c3ccc(O)cc3)oc3cc(O)cc(O)c3c2=O)O[C@H]1CCC [Inhibitor 1c, (2 s,3R,4S,5S,6S)-2-((5,7-dihydroxy-2–(4-hydroxyphenyl)-4-oxo-4H-chromen-3-yl)oxy)-3-hydroxy-6-propyl-5-((propylcarbamoyl)oxy)tetrahydro-2H-pyran-4-yl acetate]	0.0847	9.4	0.0128	6.1	11.1	26.2	6.4	0.3	0.0374	0.126 log10(nM/min)	Inhibition of RSK1 after the dilution (RSK1 [1]): not inhibited; Relative on-rate (RSK1 [3]; RSK1, change in IC50 over time, tracer added simultaneously with inhibitor): −0.719 log10(nM/min); Off: On Ratio (RSK1 [3]; RSK1, ratio of absolute value of relative off-rate to on-rate): 0.25; Relative Off-Rate (RSK1 [3]; RSK1, slope of change in IC50 over time after 2 h pre-incubation, log-log fit): 0.176 log10(nM/min); IC50 (RSK2 NTKD; 2 h incubation): 0.012 µM; Inhibition at 8-fold higher concentration than the IC50 (RSK2 [4]; FRET, RSK2, 5 min pre-incubation): 75%; Off rate lower than that of 1d, 1e, and 1f (RSK2 [4]; RSK2, relative off-rate comparison): more than three-fold; Relative on-rate (RSK2 [4]; RSK2, change in IC50 over time, tracer added simultaneously with inhibitor): −1.204 log10(nM/min); Off: On Ratio (RSK2 [4]; RSK2, ratio of absolute value of relative off-rate to on-rate): 0.10; inhibition at 1.5 µM (RSK2 [5]; over a 12 h time course after 100-fold dilution, 100 nM RSK2 pre-incubated 2 h with 1.5 μM 1c): ~50%
CCCNC(=O)OC1C(CCC)CC(Oc2c(-c3ccc(O)cc3)oc3cc(O)cc(O)c3c2=O)C(O)C1OC(=O)NCCC (stereo not drawn) [Inhibitor 1f]								1.3	0.0909	0.630 log10(nM/min)	
CCCC1CC(Oc2c(-c3ccc(O)cc3)oc3cc(O)cc(O)c3c2=O)C(O)C(OC(C)=O)C1OC(C)=O (stereo not drawn) [Inhibitor 1b, C5”-n-propyl cyclitol SL0101]	0.183	15.7				49.7	24.1	1.3	0.215	0.601 log10(nM/min)	Specificity in screen of 247 kinases (247 kinases): primarily targeted RSK1/2; Inhibition of proliferation when RSK1/2 silenced (RSK1/2): ineffective
CCCNC(=O)OC1C(CCC)CC(Oc2c(-c3ccc(O)cc3)oc3cc(O)cc(O)c3c2=O)C(O)C1OC(C)=O (stereo not drawn) [Inhibitor 1d]	0.0741	11.1						0.5	0.0263	0.548 log10(nM/min)	
CCCNC(=O)O[C@@H]1[C@@H](OC(=O)NCCC)[C@@H](O)[C@H](Oc2c(-c3ccc(O)cc3)oc3cc(O)cc(O)c3c2=O)O[C@H]1CCC [Inhibitor 1e, (2 s,3S,4S,5R,6S)-6-((5,7-dihydroxy-2–(4-hydroxyphenyl)-4-oxo-4H-chromen-3-yl)oxy)-5-hydroxy-2-propyltetrahydro-2H-pyran-3,4-diyl bis(n-propylcarbamate)]								0.8	0.0837	0.417 log10(nM/min)	melting point: 158 to 160 °C
CC(=O)OC1C(C)OC(Oc2c(-c3ccc(O)cc3)oc3cc(O)cc(O)c3c2=O)C(O)C1OC(C)=O (stereo not drawn) [SL0101, reference compound]		13.9	0.193	16.7	11.5	45.7		4.3			Increase in IC50 with 5 min vs 2 h pre-incubation (RSK2 [2]; RSK2): two-fold; % Uninhibited kinase at 30 μM (RSK2 [2]; RSK2, 5 min pre-incubation): 31.6%; Inhibition of RSK3 (RSK3; 2 h incubation): did not inhibit; % Uninhibited kinase at 30 μM (RSK3; RSK3, 2 h incubation, 30 μM inhibitor): 90.3%; IC50 (RSK1 [6]): 0.0707 µM; % Uninhibited kinase at 30 μM (RSK1 [6]; 30 μM inhibitor): 3.9%; IC50 (RSK1 [3]; FRET, RSK1, 5 min incubation): 0.774 µM; Inhibition after 5 min incubation (RSK1 [3]; FRET, RSK1, 5 min incubation): 80%; % Uninhibited kinase at 30 μM (RSK1 [3]; FRET, RSK1, 5 min incubation): 19.2%; Increase in IC50 with 5 min vs 2 h incubation (RSK2 NTKD): two-fold; Inhibition after 5 min incubation (RSK2 NTKD; 5 min incubation): ~80%; % Uninhibited kinase at 30 μM (RSK2 NTKD; 5 min incubation): 20.1%; Inhibition of RSK4 (RSK4; 2 h incubation): did not inhibit; % Uninhibited kinase at 30 μM (RSK4; RSK4, 2 h incubation, 30 μM inhibitor): 70.9%; Inhibition after 5 min incubation (RSK2 [4]; FRET, RSK2, 5 min incubation): ~50%; Inhibition of RSK2 after the dilution (RSK2 [5]; 4 h after 100-fold dilution, 100 nM RSK2 pre-incubated 2 h with 5 μM SL0101): unable to inhibit

— paper PMC8344253, “Identifying requirements for RSK2 specific inhibitors” (Journal of Enzyme Inhibition and Medicinal Chemistry, 2021)
